Experimental data as given in patent US7964631B2, “Fused tricyclic compounds as inhibitors of tumor necrosis factor-α” (Piramal Life Sciences Limited, priority 2004, dated 2011).

Tests used:
[1] = system: peripheral blood mononuclear cells (PBMC); assay: Cytotoxicity of test compounds in PBMC, cell viability by MTS reagent; format: cell-based, human
Protocol: (§1) TNF-α production by LPS in peripheral blood mononuclear cells (PBMC) was measured according to the method described by Henry et al (J. Bioorg. Med. Chem. Lett., 8: 3335-3340, 1998). Briefly, blood was collected from healthy donors into Potassium EDTA vacutainer tubes (Vacutest Plast/Becton Dickinson). PBMC were isolated using gradient centrifugation in Ficoll-Paque solution (Pharmacia). Isolated PBMC were suspended in RPMI 1640 culture medium (Gibco BRL, Pasley, UK) containing 10% fetal bovine serum (FBS) (Hyclone, Utah, USA), 100 U/ml penicillin (Sigma Chemical Co. St Louis, Mo.) and 100 μg/ml streptomycin (Sigma Chemical Co. St Louis, Mo.). The cell concentration was adjusted to 1×10^6 cells/ml. The viability as determined by trypan blue dye exclusion was uniformly ≧98%. The cell suspension (100 μl) was added to the wells of a 96-well culture plate. Following cell plating, 79 μl of the culture medium and 1 μl of eight different concentrations of the test compounds (final concentration 0.03, 0.1, 0.3, 1, 3, 10, 30, 100 μM) dissolved in DMSO (dimethylsulfoxide, Sigma, Mo., USA) were added to the cells. The final concentration of DMSO was adjusted to 0.5%. The appropriate DMSO concentration was used as control. Rolipram (30 μM) was used as a standard compound. The plates were incubated for 30 min at 37° C. in an atmosphere of 5% CO2. Finally, 20 μl (10 μg/ml) per well of LPS, (Escherchia coli 0127:B8, Sigma Chemical Co., St. Louis, Mo.) was added, for a final concentration of 1 μg/ml. The plates were incubated at 37° C. for 4.5 h in an atmosphere of 5% CO2. To determine the cytotoxicity of the test compounds, the cell viability was assessed using MTS (3-(4,5-dimethylthiazol-2-yl)-5-(3-carboxymethoxyphenyl)-2-(4-sulfonyl)-2H-tetrazolium) reagent (Promega) after 4.5 h of incubation. Supernatants were harvested and assayed for TNF-α by ELISA as described by the manufacturer (R&D Systems, MN, BD Biosciences Pharmingen) or by cytotoxicity bioassay in L929 cells. The 50% inhibitory concentration (IC50) values were calculated by a nonlinear regression method using GraphPad software (Prism 3.03)

TNF-α [2] = assay: LPS-induced TNF-α production in peripheral blood mononuclear cells (secondary screening); format: cell-based
Protocol: as §1

TNF-α [3] = assay: Whole blood cell culture assay: LPS-induced TNF-α release (primary screening); format: cell-based, human; settings: test compound 1 μM, diluted whole blood of healthy donors, LPS 1 μg/ml, 4.5 h, vs DMSO control; for inhibition at 1 µM: Homo sapiens, Whole blood cell
Protocol: TNF-α production by lipopolysaccharide (LPS) in whole blood was measured according to the method described by Wilson et al (J. Immunol. Methods, 139: 233-240, 1991). Briefly, blood was collected from healthy donors into potassium EDTA vacutainer tubes (Vacutest Plast/Becton Dickinson) and diluted with RPMI 1640 culture medium (Gibco BRL, Pasley, UK) containing 100 U/ml penicillin and 100 μg/ml streptomycin, (100× solution, Sigma Chemical Co. St Louis, Mo.) with no added serum. The white blood cell count was adjusted to 1×10^6 cells/ml and 100 μl/well of the diluted blood was transferred into 96-well culture plates. Following cell plating, 79 μl of culture medium and 1 μl of the test compounds (final concentration 1 μM) dissolved in DMSO (dimethylsulfoxide, Sigma, Mo., USA) was added to the cells. The final concentration of DMSO was adjusted to 0.5%. 1 μl of vehicle (0.5% DMSO) was used as control. Rolipram (100 μM) was used as a standard compound. The plates were incubated for 30 min at 37° C. in an atmosphere of 5% CO2. Finally, 20 μl (10 μg/ml) per well of LPS (Escherchia coli 0127:B8, Sigma Chemical Co., St. Louis, Mo.) was added, for a final concentration of 1 μg/ml. Plates were incubated at 37° C. for 4.5 h in an atmosphere of 5% CO2. Supernatants were harvested and assayed for TNF-α by ELISA as described by the manufacturer (R&D Systems, MN) or by cytotoxicity bioassay in L929 cells. Percent inhibition of TNF-α release in comparison to the control was calculated.

[4] = 4.5 h, TNF-α production in PBMC, LPS 1 μg/ml, ELISA or L929 bioassay

melting point | IC50 (TNF-α [2]; [4]) | SMILES | % toxicity (10 μM), 5 h [1] | further results
190 to 191 °C |  | COC(=O)c1cc(C)c2c(c1)S(=O)(=O)Cc1cc(N(CCCl)CCCl)cc(Cl)c1O2 |  | 
292 to 293 °C |  | COC(=O)c1cc(C)c2c(c1)S(=O)(=O)Cc1cc(NC(=O)CCl)cc(Cl)c1O2 [Example 4, 4-Chloro-2-(2-chloro-acetylamino)-6-methyl-10,10-dioxo-10,11-dihydro-5-oxa-10lambda*6*-thia-dibenzo[a,d]cycloheptene-8-carboxylic acid methyl ester] |  | 
 | 8.6 ± 1.3 µM | COC(=O)c1cc(C)c2c(c1)S(=O)(=O)Cc1cc(NC(=O)CO)cc(Cl)c1O2 [Example 5A, 4-Chloro-2-(2-hydroxy-acetylamino)-6-methyl-10,10-dioxo-10,11-dihydro-5-oxa-10lambda*6*-thia-dibenzo[a,d]cycloheptene-8-carboxylic acid methyl ester] | 00% | 
226 to 228 °C |  | CCC(=O)Nc1cc(Cl)c2c(c1)CS(=O)(=O)c1cc(C(=O)OC)cc(C)c1O2 [Example 6, 4-Chloro-6-methyl-10,10-dioxo-2-propionylamino-10,11-dihydro-5-oxa-10lambda*6*-thia-dibenzo[a,d]cycloheptene-8-carboxylic acid methyl ester] |  | inhibition at 1 µM (TNF-α [3]): 89%
258 to 262 °C (dec.) | 2.6 µM | COC(=O)c1cc(C)c2c(c1)S(=O)(=O)Cc1cc(NC=O)cc(Cl)c1O2 [Example 9, 4-Chloro-2-formylamino-6-methyl-10,10-dioxo-10,11-dihydro-5-oxa-10lambda*6*-thia-dibenzo[a,d]cycloheptene-8-carboxylic acid methyl ester] | 09% | inhibition at 1 µM (TNF-α [3]): 31%
202 to 204 °C |  | CCOC(=O)c1cc(C)c2c(c1)S(=O)(=O)Cc1cc(NC=O)cc(Cl)c1O2 [Example 10, 4-Chloro-2-formylamino-6-methyl-10,10-dioxo-10,11-dihydro-5-oxa-10lambda*6*-thia-dibenzo[a,d]cycloheptene-8-carboxylic acid ethyl ester] |  | 
199 to 201 °C |  | COC(=O)c1cc(C)c2c(c1)S(=O)(=O)Cc1cc(N(CCO)CCO)cc(Cl)c1O2 [Example 13, 2-[Bis-(2-hydroxy-ethyl)-amino]-4-chloro-6-methyl-10,10-dioxo-10,11-dihydro-5-oxa-10lambda*6*-thia-dibenzo[a,d]cycloheptene-8-carboxylic acid methyl ester] |  | 
> 320 °C | 0.55 µM | COC(=O)c1cc(C)c2c(c1)[S+]([O-])Cc1cc(N3CCNCC3)cc(Cl)c1O2.Cl (stereo not drawn) [Example 15, 4-Chloro-6-methyl-10-oxo-2-piperazin-1-yl-10,11-dihydro-5-oxa-10lambda*4*-thia-dibenzo[a,d]cycloheptene-8-carboxylic acid methyl ester hydrochloride] | 25% | 
279 to 281 °C |  | COC(=O)c1cc(C)c2c(c1)S(=O)(=O)Cc1cc(N3CCNCC3)cc(Cl)c1O2.CS(=O)(=O)O [Example 17, 4-Chloro-6-methyl-10,10-dioxo-2-piperazin-1-yl-10,11-dihydro-5-oxa-10lambda*6*-thia-dibenzo[a,d]cycloheptene-8-carboxylic acid methyl ester mesylate] | 66% | IC50 (TNF-α [2]; TNF-α production in PBMC; LPS 1 μg/ml, 4.5 h; ELISA or L929 bioassay; mesylate): 0.1 µM
278 to 280 °C |  | CS(=O)(=O)O.Cc1cc(C(=O)O)cc2c1Oc1c(Cl)cc(N3CCNCC3)cc1CS2(=O)=O [Example 19, 4-Chloro-6-methyl-10,10-dioxo-2-piperazin-1-yl-10,11-dihydro-5-oxa-10lambda*6*-thia-dibenzo[a,d]cycloheptene-8-carboxylic acid mesylate] |  | 
> 320 °C |  | COC(=O)c1cc(C)c2c(c1)S(=O)(=O)Cc1cc(N3CCOCC3)cc(Cl)c1O2 [Example 30, 4-Chloro-6-methyl-2-morpholin-4-yl-10,10-dioxo-10,11-dihydro-5-oxa-10lambda*6*-thia-dibenzo[a,d]cycloheptene-8-carboxylic acid methyl ester] |  | 
 | 0.84 µM | COC(=O)c1cc(C)c2c(c1)S(=O)(=O)Cc1ccc(NCCN)c(Cl)c1O2.Cl [Example 31, 3-(2-Amino-ethylamino)-4-chloro-6-methyl-10,10-dioxo-10,11-dihydro-5-oxa-10lambda*6*-thia-dibenzo[a,d]cycloheptene-8-carboxylic acid methyl ester hydrochloride] | 21% | inhibition at 1 µM (TNF-α [3]): 66%
230 to 232 °C |  | CCN1CCN(c2cc(Cl)c3c(c2)CS(=O)(=O)c2cc(CO)cc(C)c2O3)CC1 [Example 34, [4-Chloro-2-(4-ethyl-piperazin-1-yl)-6-methyl-10,10-dioxo-10,11-dihydro-5-oxa-10lambda*6*-thia-dibenzo[a,d]cyclohepten-8-yl]-methanol] |  | 
278 to 280 °C |  | COC(=O)c1cc(C)c2c(c1)S(=O)(=O)Cc1cc(N)cc(Cl)c1N2 [Example 37, 2-Amino-4-chloro-6-methyl-10,10-dioxo-10,11-dihydro-5H-10lambda*6*-thia-5-aza-dibenzo[a,d]-cycloheptene-8-carboxylic acid methylester] |  | inhibition at 1 µM (TNF-α [3]): 33%
 |  | COC(=O)c1cc(C)c2c(c1)S(=O)(=O)Cc1cc(NC=O)cc(Cl)c1N2 [Example 38, 4-Chloro-2-formylamino-6-methyl-10,10-dioxo-10,11-dihydro-5H-10-lambda*6*-thia-5-aza-dibenzo[a,d]-cycloheptene-8-carboxylic acid methyl ester] | 10 ± 04% | IC50 (TNF-α [2]; TNF-α production in PBMC; LPS 1 μg/ml, 4.5 h; ELISA or L929 bioassay): 1.2 ± 1.58 µM; % inhibition of TNF-α release (TNF-α [3]): 45%
 | > 10 µM | COC(=O)c1ccc2c(c1)S(=O)(=O)Cc1ccccc1C2O (stereo not drawn) [Example 40, 5-Hydroxy-10,10-dioxo-10,11-dihydro-5H-10lambda*6*-thia-dibenzo[a,d]cycloheptene-8-carboxylic acid methyl ester] | 8% | 

SMILES | melting point | IC50 (TNF-α [2]; [4]) | % toxicity (10 μM), 5 h [1] | further results
COC(=O)c1cc(C)c2c(c1)S(=O)(=O)Cc1cc(NC(=O)COC(C)=O)cc(Cl)c1O2 [Example 5B, 2-(2-Acetoxy-acetylamino)-4-chloro-6-methyl-10,10-dioxo-10,11-dihydro-5-oxa-10lambda*6*-thia-dibenzo[a,d]cycloheptene-8-carboxylic acid methyl ester] |  | 9.1 ± 1.6 µM | 00% | 
Cc1cc(C=O)cc2c1Oc1c(Cl)cc(N3CCNCC3)cc1CS2(=O)=O [Example 35, 4-Chloro-6-methyl-10,10-dioxo-2-piperazin-1-yl-10,11-dihydro-5-oxa-10lambda*6*-thia-dibenzo[a,d]cycloheptene-8-carbaldehyde] |  | 1.4 µM | 07% | inhibition at 1 µM (TNF-α [3]): 45%
